Experimental data published in patent US12065699B2, “Monitoring and diagnosis for immunotherapy, and design for therapeutic agent” (Repertoire Genesis Incorporation, priority 2016, dated 2024).

Key:
[1] = test system: peripheral blood of healthy individuals with HLA-A*02:01; assay: interferon γ ELISPOT assay; type: cell-based, human; parameters: key: ++ refers to a sample found to produce interferon γ in 3/3; + refers to a sample found to produce interferon γ in ⅓ to ⅔; details: 1×10^5 cells stimulated 16 hours; HLA-A*02:01 healthy donor peripheral blood
Method: (§1) Peripheral blood of healthy individuals with the same HLA-A*02:01 as the subject sample (tumor patient) was used. An experiment of reactivity was conducted using peptides that were manufactured therefor.
The conducted assay performed interferon γ ELISPOT and intracellular interferon γ staining. For the interferon γ ELISPOT, MABTECH anti-human IFN-γ mAb 1-D1K, purified (3420-3-250) was used as a capture antibody. In addition, MILLIPORE MultiScreen HTS 96-well Filtration Plate was used.
Briefly stated, the following was performed. • (1) Cytokine (interferon-γ in this example) specific monoclonal antibodies (MABTECH anti-human IFN-γ mAb 1-D1K, purified (3420-3-250)) were immobilized on the solid layer surface. MILLIPORE MultiScreen HTS 96-well Filtration Plate was used in this example. • (2) 1×10^5 cells were stimulated and cultured for 16 hours after washing. The secreted cytokines, i.e., interferon-γ, were bound to capture antibodies (Detection antibody; MABTECH anti-human IFN-γ mAb 7-B6-1, biotinylated (3420-6-250)) that were around the producing cells. After removing the cells by washing, anti-interferon γ antibodies for detection were added.
For biotin labeled detection antibodies, enzyme labeled streptavidin (MABTECH Streptavidin-HRP (3310-9)) was added. • (3) Next, BD ELISPOT AEC Substrate Set (551951) was used for coloration. This method allows the spot corresponding to the position where interferon γ (cytokine) producing cell was located to be seen. The obtained spots were counted with a Carl Zeiss KS ELISPOT (Minerva Tech). The frequency of positive cells was recorded. (Intracellular Interferon γ Staining)

CD8 positive cells = assay: intracellular interferon γ staining (flow cytometry); type: cell-based, human; parameters: key: ++ refers to a sample found to produce interferon γ in 3/3; + refers to a sample found to produce interferon γ in ⅓ to ⅔; details: 5×10^5 lymphocytes, peptide 1 μg/ml, 4 hours
Method: as §1
The obtained samples were subjected to intracellular interferon γ staining. 5×10^5 lymphocytes were stimulated and cultured for 4 hours in a 200 μl medium. Neoantigen peptides and control peptides were added so that the final concentration was 1 μg/ml for stimulation. An unstimulated control was also prepared. BioLegend Brefeldin A Solution (1,000×) was added so that the final concentration would be 5.0 μg/ml during stimulation. After the completion of culturing, the cells were collected and stained for 30 minutes at 4° C. with Fixable Viability Dye eFluor780 (eBioscience 65-0865-18), FITC labeled anti-CD4 antibody (BD Pharmingen™557307), ECD labeled anti-CD8 antibody (BECKMAN COULTER 41116015) and PerCP-CY5.5 labeled anti-CD3 antibody (Biolegend 300430).
The cells were treated for 15 minutes with Intraprep permeabilization reagent (Immunotech, Marseille, France). The cells were stained for 15 minutes with PE labeled anti-IL-2 antibody (BD Pharmingen™559334), Alexa700 labeled anti-TNFα antibody (BD Pharmingen™557996), and Pacific Blue labeled anti-IFN-γ antibody (Biolegend 502522)
After suspension into PBS containing 0.5% PFA, measurement was taken with Gallios flow cytometer (BECKMAN COULTER). For intracellular flow cytometry sorting, CD8 positive cells were used to analyze the production of interferon γ.

| Substance | IFNγ secretion ELISPOT [1] | IFNγ secretion Intra (CD8 positive cells) |
| --- | --- | --- |
| FLALECLAHL [pepID 14] | ++ | ++ |
| 43 (FQYSSPALPT) [compound 43] | ++ |  |
| 27 (KVLQLLEPEI) [compound 27] |  | + |
| 12 (NLKKLLVF) [compound 12] | ++ |  |
| NISSRIHTV [pepID 33] | + | ++ |
| 7 (VLNINDNEPV) [compound 7] |  | ++ |
| 18 (ICFLALECLAH) [compound 18] | ++ |  |
| 30 (ALYPFEFRS) [compound 30] |  | + |
| FTYSSALKV [pepID 41] | ++ | ++ |
| 21 (QLLEPEISFL) [compound 21] |  | ++ |
| 36 (ILQEYREDFV) [compound 36] |  | + |
| 42 (KTFTYSSAL) [compound 42] | ++ |  |
